“And” between values parts separate entries of the source, which are not always exact repeats. Identical values can stand only once. “Also recorded” adds a separate entry of the source. Like-named read-outs stand apart in the source and are kept apart here.
How the values were obtained:
[1] = system: NCI-H460; assay: In vitro cytotoxicity (GI50), non-small cell lung cancer cell line; conditions: Homo sapiens
Protocol: (§1) The in vitro cytotoxicity was measured in the following cell lines: NCI-H460 (ATCC #HTB-177) (non-small cell lung), HCT-116 (ATCC #CCL-247) (colorectal), HL-60 (ATCC #CCL-240) (leukemia), and MDA-MB-231 (ATCC #HTB-26) (breast). Table 4. Growth Inhibition (GI50) Values (µM) for Selected Cell Lines.

[2] = system: HCT-116; assay: In vitro cytotoxicity (GI50), colorectal cancer cell line; conditions: Homo sapiens
Protocol: as §1

[3] = system: MDA-MB-231; assay: In vitro cytotoxicity (GI50), breast cancer cell line; conditions: Homo sapiens
Protocol: as §1

[4] = system: HL-60; assay: In vitro cytotoxicity (GI50), leukemia cell line; type: cell-based; conditions: Homo sapiens
Protocol: as §1

[5] = following subcutaneous administration; reported; cited from earlier work
[6] = system: L1210; assay: In vitro cytotoxicity, leukemia cell line; conditions: for IC50: Mus musculus, L1210, read-out: In vitro cytotoxicity Leukemia L1210
[7] = system: THP-1 cells; assay: Giemsa stain of treated cells (morphology); type: cell-based; conditions: compared to vehicle control, FIGURE 10
[8] = system: ACHN; assay: In vitro cytotoxicity, renal cancer cell line; type: cell-based; conditions: Homo sapiens, Table 1, asterisk not explained
[9] = system: OVCAR-8; assay: In vitro cytotoxicity, ovarian cancer cell line; type: cell-based; conditions: Homo sapiens, Table 1, asterisk not explained
[10] = known; cleavage of the base at the 6-position of the cytosine ring; cited from earlier work
[11] = system: Kasumi-1 cells; assay: Giemsa stain of treated cells (morphology); type: cell-based; conditions: compared with vehicle control, FIGURE 11
[12] = system: THP-1 leukemia cells; assay: Growth inhibition of leukemia cell line compared with decitabine; type: cell-based; conditions: THP-1, equimolar concentrations; FIGURE 7
[13] = system: P388; assay: In vitro cytotoxicity, leukemia cell line; conditions: Mus musculus, P388, read-out: In vitro cytotoxicity Leukemia P388*
[14] = system: DNA methyltransferase (DNMT); assay: In vitro DNA methyltransferase inhibition in HCT-116 cells (EpiQuick DNA Methyltransferase Activity/Inhibition Assay Kit)
[15] = system: Kasumi-1 cells; assay: Growth inhibition of leukemia cell line compared with decitabine; type: cell-based; conditions: Kasumi-1, equimolar concentrations; FIGURE 8
[16] = molecular target: T1, DNMT1 (Homo sapiens, UniProt P26358); assay: Western blot of DNMT1 in Kasumi-1 cells; type: cell-based; conditions: two concentrations, FIGURE 9
T1 construct: endogenous in cells; host or cells: Kasumi-1
T1 sequence (P26358 whole entry): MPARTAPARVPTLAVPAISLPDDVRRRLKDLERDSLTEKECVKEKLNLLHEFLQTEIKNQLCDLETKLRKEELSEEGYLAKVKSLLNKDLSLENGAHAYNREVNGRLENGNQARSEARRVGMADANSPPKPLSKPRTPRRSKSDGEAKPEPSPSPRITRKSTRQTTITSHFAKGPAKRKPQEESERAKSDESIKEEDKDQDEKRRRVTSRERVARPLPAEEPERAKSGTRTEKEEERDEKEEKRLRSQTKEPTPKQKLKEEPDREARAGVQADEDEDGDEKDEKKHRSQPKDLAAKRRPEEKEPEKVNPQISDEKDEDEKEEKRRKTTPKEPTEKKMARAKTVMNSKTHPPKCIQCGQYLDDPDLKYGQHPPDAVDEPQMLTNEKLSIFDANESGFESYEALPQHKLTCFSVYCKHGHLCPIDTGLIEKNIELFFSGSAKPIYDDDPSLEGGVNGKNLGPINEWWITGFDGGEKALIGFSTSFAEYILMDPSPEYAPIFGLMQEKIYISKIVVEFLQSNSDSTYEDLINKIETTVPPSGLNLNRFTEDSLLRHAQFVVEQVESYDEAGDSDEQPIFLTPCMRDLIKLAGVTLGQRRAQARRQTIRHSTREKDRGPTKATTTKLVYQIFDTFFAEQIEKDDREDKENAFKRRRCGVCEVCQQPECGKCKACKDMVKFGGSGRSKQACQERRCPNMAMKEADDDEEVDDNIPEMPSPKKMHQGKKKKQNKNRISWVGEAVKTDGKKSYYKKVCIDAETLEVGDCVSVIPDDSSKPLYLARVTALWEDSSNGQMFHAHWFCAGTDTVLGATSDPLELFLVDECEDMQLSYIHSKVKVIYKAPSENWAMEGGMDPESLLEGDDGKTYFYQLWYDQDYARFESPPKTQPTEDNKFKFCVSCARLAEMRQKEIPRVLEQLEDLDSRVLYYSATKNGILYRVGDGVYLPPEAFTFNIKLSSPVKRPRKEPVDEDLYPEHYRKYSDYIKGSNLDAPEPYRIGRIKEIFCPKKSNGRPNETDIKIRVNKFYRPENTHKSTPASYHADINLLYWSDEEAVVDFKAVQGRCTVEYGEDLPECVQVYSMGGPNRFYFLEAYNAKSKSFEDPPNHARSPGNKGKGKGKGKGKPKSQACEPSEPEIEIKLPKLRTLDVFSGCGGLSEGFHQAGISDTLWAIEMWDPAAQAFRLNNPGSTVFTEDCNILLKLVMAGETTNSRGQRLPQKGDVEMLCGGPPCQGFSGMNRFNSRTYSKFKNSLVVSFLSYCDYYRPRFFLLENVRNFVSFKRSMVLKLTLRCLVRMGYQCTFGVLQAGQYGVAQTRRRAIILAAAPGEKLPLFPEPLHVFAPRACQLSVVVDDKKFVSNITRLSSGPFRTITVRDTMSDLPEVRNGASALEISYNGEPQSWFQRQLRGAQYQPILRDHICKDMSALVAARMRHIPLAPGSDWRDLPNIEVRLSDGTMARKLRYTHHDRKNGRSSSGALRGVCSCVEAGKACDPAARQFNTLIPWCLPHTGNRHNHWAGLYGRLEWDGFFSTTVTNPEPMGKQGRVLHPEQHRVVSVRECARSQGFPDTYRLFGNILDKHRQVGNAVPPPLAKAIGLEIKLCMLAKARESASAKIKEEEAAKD

[17] = Stability in water; type: physicochemical
[18] = system: L1210; conditions: Table 3
[19] = NCI-H460, read-out: Growth Inhibition (GI50) NCI-H460
[20] = HCT-116, read-out: Growth Inhibition (GI50) HCT-116
[21] = MDA-MB-231, read-out: Growth Inhibition (GI50) MDA-MB-231
[22] = HL-60, Table 4, read-out: Growth Inhibition (GI50) HL-60
[23] = NCI-H460, read-out: In vitro cytotoxicity NSCL NCI-H460
[24] = HCT-116, read-out: In vitro cytotoxicity Colon HCT-116
[25] = MDA-MB-231, read-out: In vitro cytotoxicity Breast MDA-MB-231

SMILES	GI50 [1, 19] [µM]	GI50 [2, 20] [µM]	GI50 [3, 21] [µM]	GI50 [4, 22] [µM]	IC50 [6] [µM]	IC50 [1, 23] [µM]	IC50 [2, 24] [µM]	IC50 [3, 25] [µM]	further results
NC1=NC(=O)N([C@@H]2O[C@H](CO)[C@@H](O)[C@H]2O)CN1 [5,6-dihydro-5-azacytidine, reference compound]	4.84	21.4	> 31.2	0.03					
Nc1ncn([C@@H]2O[C@H](CO)[C@@H](O)[C@H]2O)c(=O)n1 [Azacytidine, 5-azacytidine]				0.44	1.7 to 2.4				half-life [5]: 41 min
Nc1ncn([C@H]2C[C@H](O)[C@@H](CO)O2)c(=O)n1 [Decitabine, 5-azadeoxycytidine, reference compound]	13	> 31.2	> 31.2			13 to 44	> 62.5	> 62.5	morphologic changes (Giemsa stain) [7]: morphologic changes suggestive of cell differentiation; IC50 [8]: > 1000 µM; IC50 [9]: > 1000 µM; stability in water [10]: unstable in water; morphologic changes (Giemsa stain) [11]: morphologic changes suggestive of cell differentiation; GI50 ([4]; HL-60, read-out: Growth Inhibition (GI50) HL-60): 0.27 µM
Nc1ncn([C@@H]2O[C@H](CO)[C@@H](O)C2(F)F)c(=O)n1 [NUC013, 2',2'-difluoro-5-azadeoxycytidine]	4.39	4.54	> 31.2	1.51	1.02	4.39	4.54	> 62.5	morphologic changes (Giemsa stain) [7]: morphologic changes suggestive of cell differentiation; IC50 [8]: 0.89 µM; inhibitory effect on cell growth / cytoreduction compared with decitabine [12]: stronger inhibitory effect; also recorded: stronger cytoreduction; IC50 [13]: 0.48 µM; Percent Inhibition of DNMT ([14]; 1 µM, 24 hours, HCT-116 cells, one value per experiment (1-4)): 61.73% and 35.77% and 62.63%; potency as a DNMTI relative to 5-azacytidine ([14]; colon cancer cells, FIGURE 6): approximately 10 fold; IC50 [9]: 25.9 µM; GI50 ([2]; HCT-116): 4.54 µM; inhibitory effect on cell growth / cytoreduction compared with decitabine [15]: slightly weaker effect; also recorded: weaker cytoreduction; DNMT1 inhibition by Western blot compared with equimolar decitabine [16]: weaker DNMT1 inhibition; morphologic changes (Giemsa stain) [11]: morphologic changes suggestive of cell differentiation
NC1=NC(=O)N([C@@H]2O[C@H](CO)[C@@H](O)C2(F)F)CN1 [NUC014, 2',2'-difluoro-5,6-dihydro-5-azadeoxycytidine]					90.6	> 31.2	> 31.2	> 31.2	cytotoxicity against leukemia cell line L1210 (in words) [6]: moderate cytotoxicity; stability in an aqueous environment [17]: stable in an aqueous environment; hydrolytic cleavage at the 6-position of the cytosine ([17]; aqueous environment): does not undergo hydrolytic cleavage
O=c1ncccn1[C@@H]1O[C@H](CO)[C@@H](O)C1(F)F [NUC019, 2'-deoxy-2',2'-difluorozebularine]	136	310	166						
O=c1ncccn1[C@H]1O[C@H](CO)[C@@H](O)C1(F)F [NUC020]									GI50 [1, 23]: 136 µM; GI50 [2, 24]: 279 µM; GI50 [3, 25]: 213 µM; GI50 [18]: 346 µM
O=c1ncccn1[C@@H]1O[C@H](CO)[C@@H](O)[C@H]1O [Zebularine, reference compound]					108	99.1	47.9	144	
Nc1ccn([C@@H]2O[C@H](CO)[C@@H](O)C2(F)F)c(=O)n1 [gemcitabine, reference compound]	0.02	0.01	0.72	0.03					
